The source of these data is publication PMC8411522, “In vitro inhibitory effect of obtusofolin on the activity of CYP3A4, 2C9, and 2E1” (BMC Complementary Medicine and Therapies, 2021).

By Ki is commonly meant the dissociation constant of the complex between target and ligand, obtained from inhibition or displacement. Lower therefore signals higher affinity. Usually IC50 stands for the concentration that gives 50% inhibition. As usually defined, the kinact is the maximal first-order rate at which the target is inactivated.

Series [1] concerns the target T1, CYP2E1 (Homo sapiens, UniProt P05181).
T1 construct: Pooled HLMs were obtained from BD Bioscience (Woburn, USA); tissue BD Bioscience; host or cells: pooled human liver microsomes
Briefly: Time-dependent inhibition of CYP2E1 in pooled HLMs. The class given is in vitro ADME. The conditions noted are these: 20 μM obtusofolin, 5 to 30 min. How it is done:
(§1) The time-dependent inhibition experiments were conducted at the incubation time of 0, 5, 10, 15, and 30 min at 37 °C with 20 μM obtusofolin. After the incubation, a total of 20 μL aliquot was transferred to another tube with the NADPH-generating system and probe substrates and incubation for a specific time. The reactions were terminated by the addition of acetonitrile and placed on ice for further analysis.

Series [2] has as its target T2, CYP3A4 (Homo sapiens, UniProt P08684).
T2 construct: Pooled HLMs were obtained from BD Bioscience (Woburn, USA); tissue BD Bioscience; host or cells: pooled human liver microsomes
In words: CYP3A4 inhibition in pooled human liver microsomes (testosterone 6β-hydroxylation). The class given is in vitro ADME. As to the method:
(§2) The investigation was conducted in pool human liver microsomes in vitro. Except for the HLMs treated with 100 μM obtusofolin, specific inhibitors, and negative control HLMs were also employed.
(§3) The incubation volume was 200 μL containing potassium phosphate buffer (pH 7.4), an NADPH-generating system composed of NADP^+, glucose-6-phosphate, glucose-6-phosphate dehydrogenase, and MgCl2, probe substrates, HLMs, and obtusofolin or positive inhibitors. The experiments for each CYP isoforms were performed in triplicate and the obtained results were represented as mean value ± SD.
(§4) The reactions were initiated by adding the NADPH-generating system after a 3-min preincubation at 37 °C. The reactions were terminated by adding 100 μL acetonitrile or 10% (v:v) trichloroacetic. The mixture was placed on ice and centrifuged at 12,000 rpm for 10 min. A total of 20 μL supernatant was obtained for the analysis of metabolites by HPLC.
(§5) Firstly, 100 μM obtusofolin was incubated with the above incubation system in HLMs to evaluate its effect on the activity of CYP450s. Then the dose-dependent experiments were performed to obtain corresponding parameters in the presence of 0, 2.5, 5, 10, 25, 50, and 100 μM obtusofolin. The concentrations of probe substrates were 20–100 μM testosterone for CYP3A4, 5–20 μM diclofenac for CYP2C9, and 25–250 μM chlorzoxazone for CYP2E1.
(§6) The enzyme kinetic parameters were obtained by the least-squares linear regression. The inhibition data were fitted with non-linear regression according to the following equation: V=VmaxS/Km1+I/Ki+Sfor competitive inhibitionCYP2C9 and 2E1; V=VmaxS/Km+S1+I/Kifor non−competitive inhibitionCYP3A4.
(§7) where I is the concentration of the compound, Ki is the inhibition constant, S is the concentration of the substrate and Km is the substrate concentration at half the maximum velocity (Vmax) of the reaction. The mechanism of the inhibition was inspected using the Lineweaver–Burk plots and the enzyme inhibition models. The data comparison was performed using the Student’s t-test and performed using IBM SPSS statistics 20 (SPSS Inc., Chicago, IL, USA).

In series [3] the target is T3, CYP2C9 (Homo sapiens, UniProt P11712).
T3 construct: Pooled HLMs were obtained from BD Bioscience (Woburn, USA); tissue BD Bioscience; host or cells: pooled human liver microsomes
Briefly: CYP2C9 inhibition in pooled human liver microsomes (diclofenac 4′-hydroxylation). The class given is in vitro ADME. As to the method: as §2, §3, §4, §5, §6, §7

Series [4] has as its target T2, CYP3A4. In words: Time-dependent inhibition of CYP3A4 in pooled HLMs. The class given is in vitro ADME. How it is done: as §1
The time-dependent characteristic was estimated by the values of KI and Kinact obtained from further experiments. The incubation was performed with 0, 2, 5, 10, 20, and 50 μM obtusofolin and a higher concentration of substrates (approximately 4-fold to Km) for 0, 5, 10, 15, and 30 min. The incubation scheme was performed as described above. The fitting equation to obtain the value of KI and Kinact was: 1/Kobs=KI/Kinact∗1/I+1/Kinact
where Kobs is the pseudo-first-order rate constant of inactivation at inactivated concentration [I], Kinact is the maximum inactivation rate (a theoretical value that cannot be experimentally observed), and KI is the inactivated concentration when the rate of inactivation reaches half of Kinact.

On the set-up of series [5]: method as in PMID 33119923. The conditions noted are these: rats, 1.3 mg/kg obtusofolin; cited from earlier work.
For series [6], the target named is T1, CYP2E1. In words: CYP2E1 inhibition in pooled human liver microsomes (chlorzoxazone 6-hydroxylation). The class given is in vitro ADME. As to the method: as §2, §3, §4, §5, §6, §7
In general terms: Liver microsomes are vesicles of endoplasmic reticulum, rich in cytochrome P450 enzymes.

Series [7] concerns the target T3, CYP2C9. Briefly: Time-dependent inhibition of CYP2C9 in pooled HLMs. The class given is in vitro ADME. As to conditions: 20 μM obtusofolin, 5 to 30 min. As to the method:
as §1

Where [8] appears, read: 100 μM obtusofolin, pooled HLMs, P < 0.05 vs negative control.
Where [9] appears, read: Lineweaver–Burk plots, best fit.
The mark [10] stands for this setting: pooled HLMs, 0, 2.5, 5, 10, 25, 50, 100 μM obtusofolin, mean ± SD, triplicate.

T2 sequence (P08684 whole entry): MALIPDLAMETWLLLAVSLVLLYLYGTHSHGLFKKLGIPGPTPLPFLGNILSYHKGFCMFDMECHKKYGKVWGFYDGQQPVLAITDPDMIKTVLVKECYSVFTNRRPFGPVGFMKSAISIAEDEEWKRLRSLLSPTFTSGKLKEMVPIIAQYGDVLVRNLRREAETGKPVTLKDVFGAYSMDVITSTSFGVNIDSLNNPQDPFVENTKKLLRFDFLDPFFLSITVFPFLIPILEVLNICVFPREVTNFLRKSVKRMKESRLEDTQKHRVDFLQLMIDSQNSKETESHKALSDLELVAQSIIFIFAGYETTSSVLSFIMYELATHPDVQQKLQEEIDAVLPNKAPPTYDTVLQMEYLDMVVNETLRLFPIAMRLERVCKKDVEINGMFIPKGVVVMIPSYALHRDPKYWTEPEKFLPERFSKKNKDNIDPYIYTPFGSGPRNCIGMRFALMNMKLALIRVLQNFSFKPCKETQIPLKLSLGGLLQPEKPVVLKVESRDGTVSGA
T1 sequence (P05181 whole entry): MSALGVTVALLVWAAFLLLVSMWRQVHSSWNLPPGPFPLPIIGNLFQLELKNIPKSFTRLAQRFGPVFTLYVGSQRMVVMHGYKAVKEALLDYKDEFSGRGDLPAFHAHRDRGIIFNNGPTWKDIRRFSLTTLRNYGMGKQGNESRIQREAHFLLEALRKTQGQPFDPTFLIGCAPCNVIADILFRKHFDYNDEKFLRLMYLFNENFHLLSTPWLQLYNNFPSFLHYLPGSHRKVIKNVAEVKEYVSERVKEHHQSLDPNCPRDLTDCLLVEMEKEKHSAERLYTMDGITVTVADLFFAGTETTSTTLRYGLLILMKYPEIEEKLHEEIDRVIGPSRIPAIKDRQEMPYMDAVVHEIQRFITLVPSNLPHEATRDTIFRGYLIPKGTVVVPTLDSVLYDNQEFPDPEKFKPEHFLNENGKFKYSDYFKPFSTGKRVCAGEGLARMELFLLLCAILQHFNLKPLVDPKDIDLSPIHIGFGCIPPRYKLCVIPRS
T3 sequence (P11712 whole entry): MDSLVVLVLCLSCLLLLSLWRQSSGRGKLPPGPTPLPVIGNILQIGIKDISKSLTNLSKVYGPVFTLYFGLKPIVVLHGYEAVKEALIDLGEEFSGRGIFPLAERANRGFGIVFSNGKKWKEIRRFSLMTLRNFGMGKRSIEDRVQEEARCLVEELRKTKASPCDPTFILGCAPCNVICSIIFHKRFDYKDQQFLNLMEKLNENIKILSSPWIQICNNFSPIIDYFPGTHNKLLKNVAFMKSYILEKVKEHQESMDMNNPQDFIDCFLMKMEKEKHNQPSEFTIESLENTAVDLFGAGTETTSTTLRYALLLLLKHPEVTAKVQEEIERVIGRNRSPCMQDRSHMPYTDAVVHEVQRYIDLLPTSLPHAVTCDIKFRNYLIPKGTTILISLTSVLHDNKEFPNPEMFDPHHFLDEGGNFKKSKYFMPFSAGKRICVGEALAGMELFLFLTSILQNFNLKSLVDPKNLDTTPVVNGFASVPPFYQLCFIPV

As for `COc1c(O)c(C)cc2c1C(=O)c1c(O)cccc1C2=O` [obtusofolin], the “inhibitory effect on CYP2E1 versus incubation time” value on CYP2E1 [1] is on record as “not affected”. The “activity of CYP3A4” value on CYP3A4 [2] (setting [8]) was “significantly suppressed”. Further, the “inhibition model of CYP3A4” value against CYP3A4 [2] (setting [9]) is “non-competitive”. Moreover, the Ki on CYP3A4 [2] (non-competitive model, 20–100 μM testosterone, pooled HLMs) came out at 8.82 µM; at CYP2C9 [3] (competitive model, 5–20 μM diclofenac, pooled HLMs) it was 5.54 µM; at CYP2E1 [6] (competitive model, 25–250 μM chlorzoxazone, pooled HLMs) it was 7.79 µM. For the same molecule, the 50% inhibitory concentration (IC50) against CYP3A4 [2] (setting [10]) was determined as 17.1 ± 0.25 µM; against CYP2C9 [3] (setting [10]), 10.8 ± 0.13 µM; on CYP2E1 [6] (setting [10]) it was 15.5 ± 0.16 µM. For the same molecule, the “activity of CYP2C9” value at CYP2C9 [3] (setting [8]) was “significantly suppressed”. Also, on CYP2C9 [3] (setting [9]), the “inhibition model of CYP2C9” value is “competitive”. In addition, at CYP3A4 [4] (20 μM obtusofolin, 5 to 30 min), the “inhibitory effect on CYP3A4 versus incubation time” value is “increased with the incubation time”. Moreover, the kinact at CYP3A4 [4] (human, pooled human liver microsomes, 0, 2, 5, 10, 20, 50 μM obtusofolin, 0-30 min, substrate approx. 4-fold Km) was 0.000858 s⁻¹. Also, on CYP3A4 [4] (saturating concentration of obtusofolin), the “CYP3A4 inactivated per minute” value is “approximately 5.15%”. The “maximum (plasma concentration)” value in series [5] was 152.5 ± 62.3 ng/mL. Moreover, the “activity of CYP2E1” value at CYP2E1 [6] (setting [8]) is reported as “significantly suppressed”. The “inhibition model of CYP2E1” value on CYP2E1 [6] (setting [9]) was “competitive”. Besides, the “inhibitory effect on CYP2C9 versus incubation time” value on CYP2C9 [7] was “not affected”.
